According to the NIST ThermoML archive (doi:10.1021/je300044x):
± gives the expanded uncertainty stated by the source.

How the values were obtained:
[1] = Molar enthalpy of transition or fusion; conditions: DSC

Structure (SMILES)	Normal melting temperature (Metastable crystal, visual observation) [°C]	Normal melting temperature (Crystal 1, DTA) [°C]	Triple point temperature (Crystal 2, DTA) [K]	Molar enthalpy of transition or fusion ([1]; Crystal 1) [kcal/mol]	Molar enthalpy of transition or fusion ([1]; Crystal 2) [kcal/mol]
CCn1cc[n+](C)c1.O=S(=O)([N-]S(=O)(=O)C(F)(F)F)C(F)(F)F	-16.24 ± 2	–	–	–	–
NC(=O)c1cnccn1 [pyrazinecarboxamide]	–	188.27 ± 1.1	420.36 ± 1.1	6.72 ± 0.194	0.39 ± 0.0359
